Reference: ChEMBL document CHEMBL4699440, “Comprehensive review on the anti-bacterial activity of 1,2,3-triazole hybrids” (Eur J Med Chem, 2019)
Converted amounts (≈) assume the structure as drawn. Numbered stars: 1 amine (or outer) side, 2 acyl side, 3 side chain; on linkers, the order of the positions; unused ones are H or OH. Square brackets hold non-standard residues; d marks the D form. Peptide text beside a SMILES is read from it. * marks the point of attachment. X1 = CC(C)(C(=O)c1ccc(C(F)(F)F)cc1)C(=O)*; βPro(3R) = O=C([C@@H]1CCN([*:1])C1)[*:2]; Phe(ol) = N[C@H](CO)Cc1ccccc1; Aib = CC(C)(N)C(=O)O

Key:
[1] = tested on: Streptococcus pyogenes; assay: Antibacterial activity against Streptococcus pyogenes ATCC 35552 incubated for 24 hrs by tube dilution method; format: functional
[2] = tested on: Enterococcus faecalis; assay: Antibacterial activity against Enterococcus faecalis ATCC 29212 incubated for 24 hrs by microdilution method; format: functional
[3] = tested on: Proteus mirabilis; assay: Antibacterial activity against Proteus mirabilis 13-1; format: functional
[4] = tested on: Bacillus subtilis; assay: Antibacterial activity against Bacillus subtilis MTCC 441 incubated for 24 hrs by microdilution method; format: functional
[5] = tested on: Bacillus cereus; assay: Antibacterial activity against Bacillus cereus MTCC 430 incubated for 24 hrs by macrodilution tube method; format: functional
[6] = tested on: Bacillus cereus; assay: Antibacterial activity against Bacillus cereus ATCC 10876 incubated for 24 hrs by microdilution method; format: functional
[7] = tested on: Staphylococcus aureus; assay: Antibacterial activity against Staphylococcus aureus ATCC 25923 incubated for 24 hrs by tube dilution method; format: functional
[8] = tested on: Acinetobacter calcoaceticus; assay: Antibacterial activity against Acinetobacter calcoaceticus ATCC 19606; format: functional
[9] = tested on: Serratia marcescens; assay: Antibacterial activity against Serratia marcescens ATCC 21074; format: functional
[10] = tested on: Proteus vulgaris; assay: Antibacterial activity against Proteus vulgaris ATCC 29905; format: functional
[11] = tested on: Pseudomonas aeruginosa; assay: Antibacterial activity against Pseudomonas aeruginosa 12 incubated for 20 hrs by agar dilution method; format: functional
[12] = tested on: Escherichia coli; assay: Antibacterial activity against Escherichia coli MTCC […] by serial dilution method; format: functional
[13] = tested on: Escherichia coli; assay: Antibacterial activity against Escherichia coli MTCC 1652 incubated for […] by two-fold serial dilution method; format: functional; conditions: time 24 hrs
[14] = tested on: Staphylococcus aureus; assay: Antibacterial activity against Staphylococcus aureus 209P JC1 incubated for 20 hrs by agar dilution method; format: functional
[15] = tested on: Staphylococcus aureus; assay: Antibacterial activity against methicillin-sensitive Staphylococcus aureus ATCC 29213; format: functional
[16] = tested on: Bacillus subtilis; assay: Antibacterial activity against Bacillus subtilis RCMB 010067 by broth dilution method; format: functional
[17] = tested on: Staphylococcus epidermidis; assay: Antibacterial activity against Staphylococcus epidermidis MTCC 6880 by serial dilution method; format: functional
[18] = tested on: Staphylococcus aureus; assay: Antibacterial activity against Staphylococcus aureus MTCC 96 incubated for 24 hrs by microdilution method; format: functional
[19] = tested on: Bacillus subtilis; assay: Antibacterial activity against Bacillus subtilis MTCC 441 by serial dilution method; format: functional
[20] = tested on: Escherichia coli; assay: Antibacterial activity against Escherichia coli ATCC 25922 incubated for 24 hrs by tube dilution method; format: functional
[21] = tested on: Pseudomonas aeruginosa; assay: Antibacterial activity against Pseudomonas aeruginosa MTCC 424 incubated for 24 hrs by two-fold serial dilution method; format: functional
[22] = tested on: Enterococcus faecium; assay: Antibacterial activity against Enterococcus faecium ATCC 700221; format: functional
[23] = tested on: Staphylococcus epidermidis; assay: Antibacterial activity against Staphylococcus epidermidis incubated for 24 hrs by microdilution method; format: functional
[24] = tested on: Pseudomonas aeruginosa; assay: Antibacterial activity against Pseudomonas aeruginosa ATCC 27853; format: functional
[25] = tested on: Enterococcus faecium; assay: Antibacterial activity against Enterococcus faecium 13-7; format: functional
[26] = tested on: Streptococcus pneumoniae; assay: Antibacterial activity against Streptococcus pneumoniae RCMB 010010 by broth dilution method; format: functional
[27] = tested on: Klebsiella pneumoniae; assay: Antibacterial activity against Klebsiella pneumoniae ATCC 700603; format: functional
[28] = tested on: Pseudomonas aeruginosa; assay: Antibacterial activity against Pseudomonas aeruginosa MTCC 741 incubated for 24 hrs by microdilution method; format: functional
[29] = tested on: Morganella morganii; assay: Antibacterial activity against Morganella morganii ATCC 25830; format: functional
[30] = tested on: Proteus mirabilis; assay: Antibacterial activity against Proteus mirabilis ATCC 35659 incubated for 24 hrs by microdilution method; format: functional
[31] = tested on: Pseudomonas aeruginosa; assay: Antibacterial activity against Pseudomonas aeruginosa RCMB 010043 by broth dilution method; format: functional
[32] = tested on: Klebsiella pneumoniae; assay: Antibacterial activity against Klebsiella pneumoniae MTCC 618 incubated for 24 hrs by microdilution method; format: functional
[33] = tested on: Klebsiella pneumoniae; assay: Antibacterial activity against Klebsiella pneumonia RCMB 010058 by broth dilution method; format: functional
[34] = tested on: Citrobacter freundii; assay: Antibacterial activity against Citrobacter freundii ATCC 43864; format: functional
[35] = tested on: Stenotrophomonas maltophilia; assay: Antibacterial activity against Stenotrophomonas maltophilia ATCC 13636; format: functional
[36] = tested on: Escherichia coli; assay: Antibacterial activity against Escherichia coli NIHJ JC2 incubated for 20 hrs by agar dilution method; format: functional
[37] = tested on: Bacillus subtilis; assay: Antibacterial activity against Bacillus subtilis MTCC 441 incubated for 24 hrs by two-fold serial dilution method; format: functional
[38] = tested on: Staphylococcus aureus; assay: Antibacterial activity against Staphylococcus aureus ATCC 25923 incubated for 24 hrs by microdilution method; format: functional
[39] = tested on: Providencia rettgeri; assay: Antibacterial activity against Providencia rettgeri ATCC 31052; format: functional
[40] = tested on: Staphylococcus aureus; assay: Antibacterial activity against Staphylococcus aureus by agar dilution method; format: functional
[41] = tested on: Klebsiella aerogenes; assay: Antibacterial activity against Enterobacter aerogenes ATCC 13048; format: functional
[42] = tested on: Pseudomonas aeruginosa; assay: Antibacterial activity against Pseudomonas aeruginosa ATCC 12454 incubated for 24 hrs by tube dilution method; format: functional
[43] = tested on: Staphylococcus epidermidis; assay: Antibacterial activity against methicillin-sensitive Staphylococcus epidermidis ATCC 12228; format: functional
[44] = tested on: Bacillus cereus; assay: Antibacterial activity against Bacillus cereus by agar dilution method; format: functional
[45] = tested on: Pseudomonas aeruginosa; assay: Antibacterial activity against Pseudomonas aeruginosa ATCC 27853 incubated for 24 hrs by microdilution method; format: functional
[46] = tested on: Staphylococcus aureus; assay: Antibacterial activity against Staphylococcus aureus RCMB 010025 by broth dilution method; format: functional
[47] = tested on: Escherichia coli; assay: Antibacterial activity against Escherichia coli RCMB 010052 by broth dilution method; format: functional
[48] = tested on: Klebsiella pneumoniae; assay: Antibacterial activity against Klebsiella pneumoniae 7; format: functional
[49] = tested on: Staphylococcus epidermidis; assay: Antibacterial activity against methicillin-resistant Staphylococcus epidermidis 13-3; format: functional
[50] = tested on: Pseudomonas aeruginosa; assay: Antibacterial activity against Pseudomonas aeruginosa MTCC 424 by serial dilution method; format: functional
[51] = tested on: Staphylococcus aureus; assay: Antibacterial activity against methicillin-resistant Staphylococcus aureus ATCC 33591; format: functional
[52] = tested on: Klebsiella pneumoniae; assay: Antibacterial activity against Klebsiella pneumoniae ATCC 15380 incubated for 24 hrs by tube dilution method; format: functional
[53] = tested on: Candida albicans; assay: Antifungal activity against Candida albicans MTCC 227 incubated for 2 days by microdilution method; format: functional; conditions: MTCC 227, 48 h, time 2 day
[54] = tested on: Bacillus subtilis; assay: Potency index, ratio of ciprofloxacin MIC to test compound MIC for antimicrobial activity against Bacillus subtilis MTCC 441 incubated for 24 hrs by two-fold serial dilution method; format: functional
[55] = tested on: Escherichia coli; assay: Potency index, ratio of ciprofloxacin MIC to test compound MIC for antimicrobial activity against Escherichia coli MTCC 1652 incubated for […] by two-fold serial dilution method; format: functional
[56] = tested on: Staphylococcus aureus; assay: Antibacterial activity against Staphylococcus aureus MTCC 7443 incubated for 24 hrs by two-fold serial dilution method; format: functional
[57] = tested on: Staphylococcus aureus; assay: Potency index, ratio of ciprofloxacin MIC to test compound MIC for antimicrobial activity against Staphylococcus aureus MTCC 7443 incubated for 24 hrs by two-fold serial dilution method; format: functional
[58] = tested on: Pseudomonas aeruginosa; assay: Potency index, ratio of ciprofloxacin MIC to test compound MIC for antimicrobial activity against Pseudomonas aeruginosa MTCC 424 incubated for 24 hrs by two-fold serial dilution method; format: functional
[59] = tested on: Aspergillus brasiliensis; assay: Antifungal activity against Aspergillus brasiliensis MTCC 1344 incubated for 7 days by microdilution method; format: functional; conditions: MTCC 1344, 168 h, time 7 day
[60] = Cytotoxicity against human KB cells; format: cell-based; conditions: human, KB cells; read-out: MIC

In the case of O=C(O)c1cn(C2CC2)c2cc(N3CCNCC3)c(F)cc2c1=O [CIPROFLOXACIN], the MIC [1] is reported as 5.5 µg/mL (≈ 16.6 µM), the MIC [2] is reported as 1 µg/mL (≈ 3.02 µM) and the MIC [3] is reported as ≤ 0.03 µg/mL. For the same compound, the MIC [4] was 0.39 µg/mL (≈ 1.18 µM), the MIC [5] was 6.25 µg/mL (≈ 18.9 µM) and the MIC [6] was 1 µg/mL (≈ 3.02 µM). It also gave an MIC [7] of 5.5 µg/mL (≈ 16.6 µM), an MIC [8] of 0.03 µg/mL (≈ 0.0905 µM) and an MIC [9] of 0.03 µg/mL (≈ 0.0905 µM). The MIC [10] was ≤ 0.03 µg/mL, the MIC [11] was 0.0063 µg/mL (≈ 0.019 µM) and the MIC [12] was 4.7 µM (≈ 1.56 µg/mL). For the same compound, the MIC [13] was 37.7 µM (≈ 12.5 µg/mL), the MIC [14] was 0.0063 µg/mL (≈ 0.019 µM) and the MIC [15] was 0.03 µg/mL (≈ 0.0905 µM). For the same compound, the MIC [16] was ≥ 5 µg/mL, the MIC [17] was 4.7 µM (≈ 1.56 µg/mL) and the MIC [18] was 0.39 µg/mL (≈ 1.18 µM). The MIC [19] was 4.7 µM (≈ 1.56 µg/mL), the MIC [20] was 5.5 µg/mL (≈ 16.6 µM) and the MIC [21] was 0.0377 µg/mL. The MIC [22] was > 128 µg/mL, the MIC [23] was 0.39 µg/mL (≈ 1.18 µM) and the MIC [24] was 0.03 µg/mL (≈ 0.0905 µM). For the same compound, the MIC [25] was > 128 µg/mL, the MIC [26] was ≥ 5 µg/mL and the MIC [27] was 0.03 µg/mL (≈ 0.0905 µM). For the same compound, the MIC [28] was 0.39 µg/mL (≈ 1.18 µM), the MIC [29] was ≤ 0.03 µg/mL and the MIC [30] was 1 µg/mL (≈ 3.02 µM). For the same compound, the MIC [31] was ≥ 5 µg/mL, the MIC [32] was 0.39 µg/mL (≈ 1.18 µM) and the MIC [33] was ≥ 5 µg/mL. For the same compound, the MIC [34] was ≤ 0.03 µg/mL, the MIC [35] was 0.03 µg/mL (≈ 0.0905 µM) and the MIC [36] was 0.0063 µg/mL (≈ 0.019 µM). For the same compound, the MIC [37] was 0.0377 µg/mL, the MIC [38] was 1 µg/mL (≈ 3.02 µM) and the MIC [39] was ≤ 0.03 µg/mL. The MIC [40] was 2 µg/mL (≈ 6.04 µM), the MIC [41] was ≤ 0.03 µg/mL and the MIC [42] was 5.5 µg/mL (≈ 16.6 µM). For the same compound, the MIC [43] was 0.03 µg/mL (≈ 0.0905 µM), the MIC [44] was 2 µg/mL (≈ 6.04 µM) and the MIC [45] was 1 µg/mL (≈ 3.02 µM). The MIC [46] was ≥ 5 µg/mL, the MIC [47] was ≥ 5 µg/mL and the MIC [48] was ≤ 0.03 µg/mL. For the same compound, the MIC [49] was 0.03 µg/mL (≈ 0.0905 µM), the MIC [50] was 4.7 µM (≈ 1.56 µg/mL) and the MIC [51] was 0.03 µg/mL (≈ 0.0905 µM). For the same compound, the MIC [52] was 5.5 µg/mL (≈ 16.6 µM).
O=C(Cn1cc(COc2ccc(OCc3cn(CC(=O)Nc4ccc([N+](=O)[O-])cc4)nn3)cc2)nn1)Nc1ccc([N+](=O)[O-])cc1 gave an MIC [53] of 0.0199 µM (≈ 0.0125 µg/mL), a Ratio [54] of 2 and a Ratio [55] of 2. The MIC [56] was 0.0199 µM (≈ 0.0125 µg/mL), the MIC [21] was 0.0199 µM and the Ratio [57] was 2. For the same compound, the MIC [37] was 0.0199 µM, the Ratio [58] was 2 and the MIC [59] was 0.0199 µM (≈ 0.0125 µg/mL).
Work on CC(C)C[C@H](NC(=O)CNC(=O)C(C)(C)NC(=O)[C@@H](NC(=O)C(C)(C)NC(=O)[C@H](CCC(N)=O)NC(=O)[C@H](C)NC(=O)C(C)(C)NC(=O)[C@H](C)NC(=O)C(C)(C)NC(=O)[C@@H]1CCN(C(=O)C(C)(C)C(=O)c2ccc(C(F)(F)F)cc2)C1)C(C)C)C(=O)NC(C)(C)C(=O)N1CCC[C@H]1C(=O)N[C@H](C(=O)NC(C)(C)C(=O)NC(C)(C)C(=O)N[C@@H](CCC(N)=O)C(=O)N[C@@H](CCC(N)=O)C(=O)N[C@H](CO)Cc1ccccc1)C(C)C (X1-[βPro(3R)][Aib]A[Aib]AQ[Aib]V[Aib]GL[Aib]PV[Aib][Aib]QQ[Phe(ol)]) yielded an MCC [60] of 2.9 µg/mL.
